The text below walks through data of US11135234B2, “Effective aminoglycoside antibiotic for multidrug-resistant bacteria” (MICROBIAL CHEMISTRY RESEARCH FOUNDATION, priority 2015, dated 2021).

One experiment concerns P. aeruginosa PAO1. In words: MIC, agar plate dilution method, P. aeruginosa PAO1. It is filed as cell-based, Pseudomonas aeruginosa. To be noted: for MIC: Pseudomonas aeruginosa, PAO1, P. aeruginosa PAO1, Sensitive bacterium, read-out: minimal inhibitory concentration (MIC); for minimal inhibitory concentration (MIC): P. aeruginosa PAO1, Sensitive bacterium. Put shortly:
(§1)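 Strains were tested on agar plates containing diluted compound, and the MIC (μg/mL) was recorded according to the Japan Society of Chemotherapy protocol.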

The test system of another experiment is P. aeruginosa PAO1/GN315. The experiment can be described thus: MIC, agar plate dilution method, P. aeruginosa PAO1/GN315. It is filed as cell-based, Pseudomonas aeruginosa. To be noted: for MIC: Pseudomonas aeruginosa, read-out: minimal inhibitory concentration (MIC), P. aeruginosa PAO1/GN315, AMK-resistant; for minimal inhibitory concentration (MIC): P. aeruginosa PAO1/GN315, AMK-resistant. The method, boiled down: as §1

The test system of another experiment is S. marcescens TH-0447. The experiment can be described thus: MIC, agar plate dilution method, S. marcescens TH-0447. To be noted: for MIC: Serratia marcescens, TH0447, S. marcescens TH-0447, AMK-resistant, read-out: minimal inhibitory concentration (MIC); for minimal inhibitory concentration (MIC): S. marcescens TH-0447, AMK-resistant. The format is cell-based, Serratia marcescens. Put shortly:
as §1

The test system of experiment [1] is A. baumannii ATCC BAA-1710. The experiment can be described thus: MIC, agar plate dilution method, A. baumannii ATCC BAA-1710. It is filed as cell-based, Acinetobacter baumannii. To be noted: for MIC: Acinetobacter baumannii, ATCCBAA1710, A. baumannii ATCC BAA-1710, MDRA, read-out: minimal inhibitory concentration (MIC); for minimal inhibitory concentration (MIC): A. baumannii ATCC BAA-1710, MDRA. The method, boiled down: as §1

In a further experiment the test system is S. aureus RN4220. In words: MIC, agar plate dilution method, S. aureus RN4220. The format is cell-based, Staphylococcus aureus. To be noted: for MIC: Staphylococcus aureus, RN4220, S. aureus RN4220, Sensitive bacterium, read-out: minimal inhibitory concentration (MIC); for minimal inhibitory concentration (MIC): S. aureus RN4220, Sensitive bacterium. Put shortly: as §1

The test system of experiment [2] is K. pneumoniae ATCC BAA-2146. In words: MIC, agar plate dilution method, K. pneumoniae ATCC BAA-2146. The format is cell-based, Klebsiella pneumoniae. To be noted: for MIC: Klebsiella pneumoniae, ATCCBAA2146, K. pneumoniae ATCC BAA-2146, NDM-producing strain, read-out: minimal inhibitory concentration (MIC); for minimal inhibitory concentration (MIC): K. pneumoniae ATCC BAA-2146, NDM-producing strain. The method, boiled down:
as §1

For another experiment, the system named is P. aeruginosa MSC17707. In words: MIC, agar plate dilution method, P. aeruginosa MSC17707. To be noted: for MIC: Pseudomonas aeruginosa, MSC17707, P. aeruginosa MSC17707, AMK-resistant, read-out: minimal inhibitory concentration (MIC); for minimal inhibitory concentration (MIC): P. aeruginosa MSC17707, AMK-resistant. The format is cell-based, Pseudomonas aeruginosa. The method, boiled down: as §1

The next experiment has as its system E. faecium ATCC19434. In words: MIC, agar plate dilution method, E. faecium ATCC19434. It is filed as cell-based, Enterococcus faecium. To be noted: for MIC: Enterococcus faecium, ATCC19434, E. faecium ATCC19434, read-out: minimal inhibitory concentration (MIC); for minimal inhibitory concentration (MIC): E. faecium ATCC19434. The method, boiled down: as §1
For the next experiment, the system named is E. coli JM109/pMW218. The experiment can be described thus: MIC, agar plate dilution method, E. coli JM109/pMW218. To be noted: for MIC: Escherichia coli, JM109/PMW218, E. coli JM109/pMW218, Sensitive bacterium, read-out: minimal inhibitory concentration (MIC); for minimal inhibitory concentration (MIC): E. coli JM109/pMW218, Sensitive bacterium. It is filed as cell-based, Escherichia coli. Put shortly:
as §1

The subject of the next experiment is S. aureus MF490. In words: MIC, agar plate dilution method, S. aureus MF490. The format is cell-based, Staphylococcus aureus. To be noted: for MIC: Staphylococcus aureus, MRSA, read-out: minimal inhibitory concentration (MIC); for minimal inhibitory concentration (MIC): S. aureus MF490, MRSA. Put shortly: as §1
For the next experiment, the system named is S. marcescens GN6944. The experiment can be described thus: MIC, agar plate dilution method, S. marcescens GN6944. The format is cell-based, Serratia marcescens. To be noted: S. marcescens GN6944, GM-resistant; for MIC: Serratia marcescens, read-out: minimal inhibitory concentration (MIC). Put shortly: as §1
In experiment [3] the test system is K. pneumoniae ATCC BAA-1705. The experiment can be described thus: MIC, agar plate dilution method, K. pneumoniae ATCC BAA-1705. The format is cell-based, Klebsiella pneumoniae. To be noted: for MIC: Klebsiella pneumoniae, ATCCBAA1705, K. pneumoniae ATCC BAA-1705, KPC-producing strain, read-out: minimal inhibitory concentration (MIC); for minimal inhibitory concentration (MIC): K. pneumoniae ATCC BAA-1705, KPC-producing strain. Put shortly: as §1

In the next experiment the test system is P. aeruginosa MSC01035. In words: MIC, agar plate dilution method, P. aeruginosa MSC01035. The format is cell-based, Pseudomonas aeruginosa. To be noted: P. aeruginosa MSC01035, ABK-resistant; for MIC: Pseudomonas aeruginosa, read-out: minimal inhibitory concentration (MIC). Put shortly: as §1
In another experiment the test system is S. aureus RN4220/pMS520. The experiment can be described thus: MIC, agar plate dilution method, S. aureus RN4220/pMS520. It is filed as cell-based, Staphylococcus aureus. To be noted: for MIC: Staphylococcus aureus, MRSA, read-out: minimal inhibitory concentration (MIC), S. aureus RN4220/pMS520, MRSA; for minimal inhibitory concentration (MIC): S. aureus RN4220/pMS520, MRSA. The method, boiled down:
as §1

SMILES strings stand for the structures. In brackets after ≈: the same amount, converted by molar mass.

For the compound `CNC1C(O[C@H]2OC(CO)[C@@H](NC(=N)N)[C@H](O)C2O)O[C@H]2CC(N)[C@@H](O[C@H]3CC[C@H](N)CC3N)OC2C1O` (some centres unmarked) [Compound T2-e, 4″-deamino-5,6-dideoxy-4″-guanidinoapramycin], the MIC in the experiment on P. aeruginosa PAO1 amounted to 4 µg/mL (≈ 7.28 µM); in the experiment on P. aeruginosa PAO1/GN315, 4 µg/mL (≈ 7.28 µM); in the experiment with S. marcescens TH-0447 it was 4 µg/mL (≈ 7.28 µM); in [1], 4 µg/mL (≈ 7.28 µM); in the experiment with S. aureus RN4220, 1 µg/mL (≈ 1.82 µM); in experiment [2], 0.5 µg/mL (≈ 0.91 µM). Further, the MIC was determined as 4 µg/mL (≈ 7.28 µM) in the experiment with P. aeruginosa MSC17707; 4 µg/mL (≈ 7.28 µM) in the experiment on E. faecium ATCC19434; 0.5 µg/mL (≈ 0.91 µM) with E. coli JM109/pMW218; 2 µg/mL (≈ 3.64 µM) in the experiment with S. aureus MF490; 2 µg/mL (≈ 3.64 µM) in the experiment on S. marcescens GN6944; 1 µg/mL (≈ 1.82 µM) in [3]. For the same compound, the MIC with P. aeruginosa MSC01035 amounted to 8 µg/mL (≈ 14.6 µM); in the experiment with S. aureus RN4220/pMS520, 0.5 µg/mL (≈ 0.91 µM).
For the compound `CNC1C(OC2OC(CO)C(NC(=N)N)CC2O)OC2CC(N)C(OC3CC(O)C(N)CC3N)OC2C1O` (centres unmarked) [Compound U4-a, 4″-deamino-5,3″-dideoxy-4″-guanidinoapramycin], the “minimal inhibitory concentration (MIC)” value in the experiment with P. aeruginosa PAO1 stood at 4 µg/mL (≈ 7.28 µM); with P. aeruginosa PAO1/GN315, 4 µg/mL (≈ 7.28 µM); in the experiment on S. marcescens TH-0447, 4 µg/mL (≈ 7.28 µM); in [1], 8 µg/mL (≈ 14.6 µM); in the experiment with S. aureus RN4220 it was 1 µg/mL (≈ 1.82 µM); in experiment [2], 0.5 µg/mL (≈ 0.91 µM). The “minimal inhibitory concentration (MIC)” value in the experiment with P. aeruginosa MSC17707 came out at 8 µg/mL (≈ 14.6 µM); with E. faecium ATCC19434, 4 µg/mL (≈ 7.28 µM); with E. coli JM109/pMW218, 0.5 µg/mL (≈ 0.91 µM); in the experiment with S. aureus MF490, 4 µg/mL (≈ 7.28 µM); with S. marcescens GN6944, 2 µg/mL (≈ 3.64 µM); in [3], 1 µg/mL (≈ 1.82 µM). Also, the “minimal inhibitory concentration (MIC)” value in the experiment on P. aeruginosa MSC01035 worked out at 8 µg/mL (≈ 14.6 µM); in the experiment on S. aureus RN4220/pMS520 it was 1 µg/mL (≈ 1.82 µM).
For `CNCC(=O)N[C@@H]1C(CO)O[C@H](OC2O[C@H]3CC(N)[C@@H](O[C@@H]4C(N)C[C@@H](N)C(O)[C@H]4O)OC3C(O)C2NC)C(O)[C@H]1O` (some centres unmarked) [Compound V1-b, 4″-N-sarcosylapramycin], the MIC in the experiment with P. aeruginosa PAO1 turned out to be 4 µg/mL (≈ 6.55 µM); in the experiment with P. aeruginosa PAO1/GN315 it was 4 µg/mL (≈ 6.55 µM); with S. marcescens TH-0447 it was 16 µg/mL (≈ 26.2 µM); in experiment [1] it was 8 µg/mL (≈ 13.1 µM); in the experiment on S. aureus RN4220, 2 µg/mL (≈ 3.28 µM); in experiment [2], 1 µg/mL (≈ 1.64 µM). For the same compound, the MIC in the experiment with P. aeruginosa MSC17707 was 4 µg/mL (≈ 6.55 µM); with E. faecium ATCC19434, 16 µg/mL (≈ 26.2 µM); with E. coli JM109/pMW218, 1 µg/mL (≈ 1.64 µM); with S. aureus MF490, 8 µg/mL (≈ 13.1 µM); with S. marcescens GN6944 it was 8 µg/mL (≈ 13.1 µM); in experiment [3], 2 µg/mL (≈ 3.28 µM). Besides, the MIC in the experiment with P. aeruginosa MSC01035 came out at 4 µg/mL (≈ 6.55 µM); in the experiment with S. aureus RN4220/pMS520, 2 µg/mL (≈ 3.28 µM).
For `CNC1C(O[C@H]2OC(CO)[C@@H](NC(=O)[C@H](C)N)[C@H](O)C2O)O[C@H]2CC(N)[C@@H](O[C@@H]3C(N)C[C@@H](N)C(O)[C@H]3O)OC2C1O` (stereo partly drawn) [Compound V1-c, 4″-N-(L-alanyl)apramycin], the “minimal inhibitory concentration (MIC)” value with P. aeruginosa PAO1 stood at 16 µg/mL (≈ 26.2 µM); in the experiment with P. aeruginosa PAO1/GN315, 8 µg/mL (≈ 13.1 µM); with S. marcescens TH-0447 it was 16 µg/mL (≈ 26.2 µM); in experiment [1], 8 µg/mL (≈ 13.1 µM); in the experiment on S. aureus RN4220, 4 µg/mL (≈ 6.55 µM); in experiment [2], 2 µg/mL (≈ 3.28 µM). Besides, the “minimal inhibitory concentration (MIC)” value with P. aeruginosa MSC17707 stood at 8 µg/mL (≈ 13.1 µM); with E. faecium ATCC19434, 32 µg/mL (≈ 52.4 µM); in the experiment on E. coli JM109/pMW218, 2 µg/mL (≈ 3.28 µM); with S. aureus MF490 it was 16 µg/mL (≈ 26.2 µM); with S. marcescens GN6944, 8 µg/mL (≈ 13.1 µM); in experiment [3] it was 4 µg/mL (≈ 6.55 µM). For the same compound, the entries for the “minimal inhibitory concentration (MIC)” value in the experiment with P. aeruginosa MSC01035 and in the experiment with S. aureus RN4220/pMS520 were 8 µg/mL (≈ 13.1 µM) and 4 µg/mL (≈ 6.55 µM), respectively.
